Here are results for one compound from publication PMC9551276, “Design, synthesis and biological evaluation of novel orthosteric-allosteric ligands of the cannabinoid receptor type 2 (CB2R)” (Frontiers in Chemistry, 2022).

Data set [1] has as its target T1, hCB2R (Homo sapiens, UniProt P34972). Briefly: DiscoveRx HitHunter inhibition of FSK-stimulated cAMP accumulation. Format: cell-based. The protocol: Inhibition of FSK-stimulated cAMP accumulation was measured using the DiscoveRx HitHunter assay.
In general terms: Cyclic AMP is a second messenger, typically raised through Gs and lowered through Gi signalling.

Data set [2] addresses T1, hCB2R. Briefly: DiscoveRx PathHunter βarrestin2 recruitment. Format: cell-based. The protocol:
βarrestin2 recruitment was quantified using the DiscoveRx PathHunter® assay. […] Detection solution was added to cells (DiscoveRx), and cells were incubated for 60 min at room temperature. Chemiluminescence was measured on a Cytation5 plate reader (top read, gain 200, integration time 10,000 ms).
In general terms: Recruitment of arrestin is a read-out of receptor activation apart from second messengers.

The next data set has as its target T2, hCB1R (Homo sapiens, UniProt P21554).
T2 construct: expressed in transfected cells; host or cells: CHO-K1 (ATCC CCL-61) stably expressing hCB1R; membranes
Briefly: [3H]CP55,940 radioligand displacement, CHO-K1 hCB1R membranes. It is filed as binding. The note with it: % [3H]CP55,940 bound, 1 nM radioligand, 2 h. The protocol: (§1) CHO-K1 cells were thawed, diluted in Tris buffer (50 mM Tris [pH 7.4]) and homogenized in a 1 ml hand-held homogenizer. hCB1R and hCB2R CHO-K1 cell membranes were collected by cavitation in a pressure cell, and sedimented by ultracentrifugation. Pellets were resuspended in TME buffer (50 mM Tris, 5 mM MgCl2, 1 mM EDTA [pH 7.4]), and protein concentration was measured via the Bradford method according to the manufacturer’s directions (Bio-Rad Laboratories, Mississauga, ON). […] Radioligand binding began with the addition of CHO-K1 cell membranes (25 µg protein per sample). Assays were performed for 120 min at 37°C and stopped by the addition of ice-cold Tris binding buffer (pH 7.4), followed by vacuum filtration using a 24-well sampling manifold (Brandel Cell Harvester; Brandel Inc., Gaithersburg, MD, United States ). Brandel GF/B filter paper was soaked with wash buffer at 4 °C for at least 24 h. Each filter paper was washed 6 times with a 1.2 ml aliquot of Tris-binding buffer (pH 7.4), then air-dried and submerged in 5 ml of scintillation fluid (Ultima Gold XR, PerkinElmer). Liquid scintillation spectrometry was used to quantify radioactivity.

The target in data set [3] is T1, hCB2R. Briefly: [3H]CP55,940 radioligand displacement, CHO-K1 hCB2R membranes. It is filed as binding. The protocol:
as §1, with “Assays were performed for 120 min at 37°C and stopped by the addition of ice-cold Tris binding buffer (pH 7.4), followed by vacuum filtration using a 24-well sampling manifold (Brandel Cell Harvester; Brandel Inc., Gaithersburg, MD, United States ).” left out
On the technique in general: Loss of bound radioactivity is the signal in a displacement assay; it reports binding, not function.

Data set [4] concerns human microglial cells (HMC3). Briefly: IL-6 and IL-10 release (ELISA) in LPS/TNFα-stimulated HMC3 cells. It is filed as cell-based. The protocol:
The concentrations of pro-inflammatory (IL-6) and anti-inflammatory (IL-10) interleukins were determined by performing specific ELISA assays (MyBioSource, San Diego, CA, United States ) on collected culture media. Human microglial cells (HMC3) were exposed to pretreatment with test compounds for 1 h followed by stimulation with LPS (10 μg/ml)/TNFα (50 ng/ml) for 24 h. In competition experiments, the CB2R antagonist (SR144528, 1 μM) or the CB2R positive allosteric modulator (EC21a 1 or 10 μM) were administered 15 min before agonist administration.

The test system of a further data set is HMC3 cells. Briefly: MTT assay, HMC3 cell viability. Format: cell-based, human. The protocol:
FIGURE 7 MTT assay performed with different concentrations of JR64a. Data represent means ± S.E.M. from n = 3 independent experiments, performed in triplicate. Statistical analysis was performed by ordinary one-way ANOVA followed by Tukey’s multiple comparison test. ^# p < 0.05 vs. control.

T1 sequence (P34972 whole entry): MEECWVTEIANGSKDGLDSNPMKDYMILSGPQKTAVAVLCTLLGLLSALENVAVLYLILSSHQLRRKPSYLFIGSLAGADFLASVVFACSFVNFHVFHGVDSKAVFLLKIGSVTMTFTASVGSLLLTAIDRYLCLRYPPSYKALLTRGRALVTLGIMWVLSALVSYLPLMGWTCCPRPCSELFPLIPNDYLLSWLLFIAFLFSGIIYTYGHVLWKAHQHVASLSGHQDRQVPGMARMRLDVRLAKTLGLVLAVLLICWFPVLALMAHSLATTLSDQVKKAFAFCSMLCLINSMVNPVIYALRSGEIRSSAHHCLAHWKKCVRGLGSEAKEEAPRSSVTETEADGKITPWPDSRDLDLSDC
T2 sequence (P21554 whole entry): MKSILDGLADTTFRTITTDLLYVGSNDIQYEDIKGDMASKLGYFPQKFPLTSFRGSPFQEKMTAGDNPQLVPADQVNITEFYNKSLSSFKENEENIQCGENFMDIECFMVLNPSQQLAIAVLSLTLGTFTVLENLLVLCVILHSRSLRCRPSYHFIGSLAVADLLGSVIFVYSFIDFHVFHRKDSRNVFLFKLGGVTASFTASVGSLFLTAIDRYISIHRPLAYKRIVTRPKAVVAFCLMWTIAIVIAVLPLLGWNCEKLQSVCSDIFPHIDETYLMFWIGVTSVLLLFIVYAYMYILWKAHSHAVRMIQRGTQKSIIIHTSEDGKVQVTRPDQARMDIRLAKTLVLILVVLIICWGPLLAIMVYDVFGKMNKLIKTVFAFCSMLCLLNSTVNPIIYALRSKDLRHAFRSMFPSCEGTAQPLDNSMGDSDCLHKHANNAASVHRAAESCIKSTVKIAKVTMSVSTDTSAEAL

On to `Cc1c(Br)cn(CCCCCCCn2c(=O)c(C(=O)NC3CCC(C)CC3)cc3cccnc32)c(=O)c1NC(=O)C1CCCCCC1` (stereo not drawn) [JR64a, 1-(7-(5-bromo-3-(cycloheptanecarboxamido)-4-methyl-2-oxopyridin-1(2H)-yl)heptyl)-N-(4-methylcyclohexyl)-2-oxo-1,2-dihydro-1,8-naphthyridine-3-carboxamide], for which the melting point (commonly the temperature, or range, at which the solid turns liquid) was 121 °C (dec.). Further, the midpoint of the response on hCB2R [1], the EC50, lay at 8.6 nM. Also, at hCB2R [1] (CHO-K1 hCB2R), the “Response in inhibition of FSK-stimulated cAMP accumulation” value is “modest partial agonist activity”. On hCB2R [1] (CHO-K1 hCB2R, 10 µM FSK, 90 min), the “Inhibition of cAMP E max (% CP55,940) ± S.E.M” value is on record as 38 ± 0.74 % CP55,940. For the same compound, the EC50 (commonly the midpoint of the concentration-response curve) at hCB2R [2] was more than 10000 nM. Besides, the “βarrestin2 recruitment E max (% CP55,940) ± S.E.M” value on hCB2R [2] (CHO-K1 hCB2R, 90 min) is reported as 45 ± 2.4 % CP55,940. Also, on hCB1R, the “hCB1R E min (% CP55,940) ± S.E.M” value was 104 ± 4.7 % CP55,940. Further, the IC50 (as a rule, the midpoint of a concentration-inhibition curve) on hCB2R [3] worked out at 0.6 nM. The “hCB2R E min (% CP55,940) ± S.E.M” value on hCB2R [3] (% [3H]CP55,940 bound, 1 nM radioligand, 2 h) is listed as 20 ± 10.3 % CP55,940. Besides, the Anti-inflammatory properties entry in data set [4] (10 μM, LPS/TNFα-stimulated HMC3) was “good anti-inflammatory properties”. In addition, the “Anti-inflammatory activity (IL-6 and IL-10 levels)” value in data set [4] (10 or 25 μM, 1 h pretreatment, then LPS/TNFα 24 h) is “marked anti-inflammatory activity”. Further, in data set [4] (SR144528 1 μM 15 min before agonist, LPS/TNFα 24 h), the “Anti-inflammatory activity after pretreatment with CB2R antagonist SR144528” value is “completely abolished”. Besides, in the data set with HMC3 cells (10 μM), the HMC3 cytotoxicity entry is “no relevant HMC3 cytotoxicity”. For the same compound, the “Decrease in cell viability” value in the data set with HMC3 cells (25 μM) is on record as approximately 10%. Moreover, the “Cytotoxic effects in HMC3 cells” value in the data set with HMC3 cells (1 and 10 μM) was “no relevant cytotoxic effects”.
